Results on 38 compounds are retold here after PubChem BioAssay (NCI).

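Grown in 96-well plates, cells were treated for 48 hours with each compound at five concentrations. Insufficient inhibition: endpoint recorded as highest concentration tested. The concentration for 50% growth inhibition is given as GI50. TGI: concentration producing complete growth inhibition.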 *1 amine or outer side, *2 acyl side, *3 side chain or, on linkers, in order; H or OH if unused. Where a SMILES comes first, the peptide text is derived from it. Bridges are numbered along the chain shown (N, C = ends). [ ]: non-standard residue; d: D form. ξ: configuration not given here. X4 = CCC(C)C(N[*:1])C(O)CC(=O)O[C@H](C(=O)C(C)C(=O)[*:2])C(C)C; NMeY = CN[C@@H](Cc1ccc(O)cc1)C(=O)O; X9 = O=C([C@@H]1CC(O)CN1[*:1])[*:2]; ξNMeL = CNC(CC(C)C)C(=O)O; ξT = CC(O)C(N)C(=O)O Bounds are passed on as bounds.

Some test systems named below: DLD-1 colon; DMS 273 small cell lung; SNB-78 CNS; LXFL 529 NSCLC; MDA-N; HOP-18 NSCLC; RXF-631 renal.
Common to all, as to assay: NCI anticancer screen, dose series, 48 h

For the compound `COc1cc2c(cc1OC)-c1c(cnn1C1OC(COC(C)=O)C(OC(C)=O)C(OC(C)=O)C1OC(C)=O)CC2` (stereo not drawn), the TGI in the test on DLD-1 colon, in the test on DMS 273 small cell lung, with SNB-78 CNS and with LXFL 529 NSCLC was greater than 100 µM throughout.
`O=c1c2cc(Br)ccc2oc2ccc(Br)cc12` yielded a TGI with MDA-N greater than 100 µM.
In the case of `O=C(Nc1ccc(C(F)(F)F)cc1[N+](=O)[O-])C(=O)C(C(=O)c1ccc2ccccc2c1)C1OC(=O)c2ccccc21` (stereo not drawn), the TGI in the test with DLD-1 colon amounted to 26.7 µM; in the test on SNB-78 CNS, 35.4 µM; in the test with LXFL 529 NSCLC it was 20.9 µM.
On to `CC1C(=O)N=C2C(=CN(Cc3ccccc3)c3ccccc32)C(=O)N1C` (stereo not drawn), for which the TGI in the test on MDA-N is greater than 100 µM.
In the case of `O=[N+]([O-])c1ccc(Cc2nc3ccccc3s2)cc1`, the TGI with DLD-1 colon, in the test with DMS 273 small cell lung, in the test on SNB-78 CNS, with LXFL 529 NSCLC and with HOP-18 NSCLC was greater than 100 µM throughout.
On to `Cc1ccccc1C(C#N)/C(=N/NC(=O)c1cc2ccccc2cc1O)C(=O)Nc1cccc(Cl)c1` (stereo not drawn), for which the TGI in the test on DLD-1 colon was greater than 100 µM; in the test with DMS 273 small cell lung it was 32.5 µM; in the test on SNB-78 CNS it was greater than 100 µM; with LXFL 529 NSCLC it was greater than 100 µM; in the test on HOP-18 NSCLC, 73.4 µM.
Turning to `COc1ccccc1NC(=O)CC(=O)n1nc(C)c(N=Nc2ccccc2F)c1C`, the TGI is greater than 100 µM in the test on DLD-1 colon; greater than 100 µM in the test on DMS 273 small cell lung; greater than 31.6 µM with SNB-78 CNS; greater than 100 µM in the test on LXFL 529 NSCLC; greater than 100 µM in the test with HOP-18 NSCLC.
With `CCCCOC(=O)/C(CC(=O)C=C(C)C)=N\NS(=O)(=O)c1ccc(C)cc1`, the TGI in the test on DLD-1 colon, in the test with SNB-78 CNS, with LXFL 529 NSCLC and in the test with HOP-18 NSCLC was greater than 100 µM in each case.
On to `O=C1CCC(c2nc3ccccc3o2)C(=O)N1` (stereo not drawn), for which the TGI in the test on DLD-1 colon, with DMS 273 small cell lung, with SNB-78 CNS, in the test on RXF-631 renal, in the test on LXFL 529 NSCLC and in the test on HOP-18 NSCLC was greater than 100 µM each time.
`N#CCCc1nc2ccc(Br)cc2c(=O)n1-c1ccc(O)c([N+](=O)[O-])c1`: the TGI is 34.7 µM in the test on DLD-1 colon, 76.7 µM with SNB-78 CNS, 33.9 µM in the test on RXF-631 renal and 40 µM in the test with LXFL 529 NSCLC.
Regarding `COc1ccc(C2(CN(C)C)COc3cc(OC)c(OC)cc3C2=O)cc1OC` (stereo not drawn), the TGI in the test on DLD-1 colon was 44.6 µM; in the test with SNB-78 CNS, greater than 100 µM; in the test with RXF-631 renal, greater than 100 µM; in the test with LXFL 529 NSCLC it was 48.8 µM; in the test with HOP-18 NSCLC, greater than 100 µM.
`Cc1cccc(C(C)O)n1` (stereo not drawn) had a TGI in the test with MDA-N greater than 100 µM.
Consider `CCc1ccccc1NC(=O)CCc1nc(=S)[nH][nH]1`, for which the TGI in the test on DLD-1 colon, with DMS 273 small cell lung, with SNB-78 CNS, in the test with RXF-631 renal and in the test with LXFL 529 NSCLC was greater than 100 µM each time.
`CCOC(=O)C1CCC/C1=N\N=C(N)N` (stereo not drawn) (tested in a mixture with another compound) came in with a TGI with MDA-N greater than 100 µM.
On the same count and under the same terms, as for `O=C(O)CC(Cc1ccc2c(c1)OCO2)C(=O)O` (stereo not drawn), the figure is greater than 100 µM.
For the compound `COc1ncnc2c(NC3OC(CO)C(O)C3O)ncnc12` (stereo not drawn), the TGI came to 33.7 µM in the test on DLD-1 colon; 5.74 µM in the test with DMS 273 small cell lung; 71.9 µM in the test with SNB-78 CNS; 15.4 µM with RXF-631 renal; 22.8 µM in the test with MDA-N; 83.4 µM in the test with LXFL 529 NSCLC.
`Cc1cc2c(cn1)C(=O)OCC2`: the TGI in the test on DLD-1 colon, in the test on SNB-78 CNS, in the test on LXFL 529 NSCLC and in the test on HOP-18 NSCLC was greater than 100 µM each time.
Consider `Cc1cc2c(C(C)C)c(O)c(O)c3coc(/c1=c1/c(C)cc4c(C(C)C)c(=O)c(=O)c5coc1c45)c32`, for which the TGI in the test with DLD-1 colon stood at 16.4 µM; in the test with DMS 273 small cell lung, 13.8 µM; in the test on SNB-78 CNS, 25.2 µM; in the test with RXF-631 renal, 22 µM; in the test on LXFL 529 NSCLC it was 12.7 µM.
In the test with MDA-N, `CC1(C)CCSC(/C=C/c2ccccc2)=N1` showed a TGI of 24.8 µM.
As to `Cc1ccc2sc3cc(=O)cc(C)c-3nc2c1`, the TGI in the test on DLD-1 colon, in the test on DMS 273 small cell lung, in the test with SNB-78 CNS, with RXF-631 renal, with LXFL 529 NSCLC and with HOP-18 NSCLC was greater than 100 µM each time.
As for `N=C(c1ccccc1)N1CCCCC1`, the TGI in the test on DLD-1 colon, in the test on DMS 273 small cell lung, in the test with SNB-78 CNS, in the test on LXFL 529 NSCLC and in the test with HOP-18 NSCLC was greater than 100 µM in each case.
For `O=S(=O)(O)C(F)(F)C(F)(F)C(F)(F)C(F)(F)F`, the TGI in the test on DLD-1 colon, in the test with DMS 273 small cell lung, with LXFL 529 NSCLC and in the test on HOP-18 NSCLC was greater than 100 µM throughout.
With `CCNC(=O)C(O)C1(O)CCC2[C@@H]3CCC4=CC(=O)C=C[C@]4(C)C3[C@@H](O)C[C@@]21C` (stereo partly drawn), the TGI with DLD-1 colon, in the test on DMS 273 small cell lung, in the test on SNB-78 CNS, in the test with RXF-631 renal, in the test on LXFL 529 NSCLC and with HOP-18 NSCLC was greater than 100 µM in each case.
For `CC1(C)OC2C(CO)OC(n3ccc(=O)[nH]c3=O)C2O1` (stereo not drawn), the TGI in the test with MDA-N was greater than 100 µM.
With `C/C(=N\NC(N)=S)c1ccc2c(c1)OCO2`, the TGI in the test with DLD-1 colon, in the test with SNB-78 CNS, in the test with RXF-631 renal, in the test on LXFL 529 NSCLC and in the test on HOP-18 NSCLC was greater than 100 µM in each case.
Consider `CCC(C)C1NC(=O)C(NC(=O)C(CC(C)C)N(C)C(=O)[C@@H]2CC(O)CN2)C(C)OC(=O)[C@H](Cc2ccc(OC)cc2)N(C)C(=O)[C@@H]2CCCN2C(=O)[C@H](CC(C)C)NC(=O)C(C)C(=O)[C@H](C(C)C)OC(=O)CC1O` (stereo partly drawn) (H-[X9][ξNMeL][ξT][X4]LP[NMeY](Me); ester 3-C), for which, in the test on MDA-N, the TGI was found to be 0.106 µM.
Take `CCCOc1ccc(/C=C/c2cc(OC)c(OC)c(OC)c2)cc1`: the TGI in the test with DLD-1 colon is 35.7 µM; in the test on DMS 273 small cell lung, 11.7 µM; in the test on SNB-78 CNS it was greater than 100 µM; with RXF-631 renal, greater than 100 µM; with LXFL 529 NSCLC it was greater than 100 µM; in the test on HOP-18 NSCLC it was greater than 100 µM.
Take `O=C1C(NCCO)=C(N2CC2)C(=O)C(NCCO)=C1N1CC1`: the TGI was greater than 68.8 µM with DLD-1 colon; greater than 40 µM in the test with DMS 273 small cell lung; greater than 100 µM in the test on SNB-78 CNS; greater than 100 µM with MDA-N; greater than 92.9 µM in the test on LXFL 529 NSCLC; greater than 100 µM in the test with HOP-18 NSCLC.
Regarding `C[C@]12CC[C@H]3[C@@H](CCC4=CC(=O)CC[C@@H]43)[C@@H]1CC[C@@H]2OC1(O)C(=O)c2ccccc2C1=O`, in the test with MDA-N, the TGI was 35.1 µM.
Take `O=S(=O)(CC1=NC2C=CC=CC2N=C1)NCc1ccccc1` (stereo not drawn): the TGI with DLD-1 colon, in the test with DMS 273 small cell lung, with LXFL 529 NSCLC and in the test with HOP-18 NSCLC was greater than 100 µM in each case.
In the case of `C=CCOc1cc2c(cc1C(C)c1ccc(OC)cc1)OCO2` (stereo not drawn), the TGI in the test with DLD-1 colon was greater than 100 µM; in the test on DMS 273 small cell lung it was greater than 100 µM; in the test with SNB-78 CNS it was greater than 100 µM; in the test with MDA-N, greater than 100 µM; with LXFL 529 NSCLC it was 63.9 µM.
In the case of `CSC(=S)N(C)c1nc(=[N+](C)C)ss1`, the TGI with DLD-1 colon, in the test with DMS 273 small cell lung, in the test with SNB-78 CNS, with LXFL 529 NSCLC and with HOP-18 NSCLC was greater than 100 µM throughout.
As to `C/C(=N\NC(N)=S)c1ccc(/C(C)=N/NC(N)=S)cc1`, the TGI in the test on DLD-1 colon, in the test on RXF-631 renal, in the test with LXFL 529 NSCLC and in the test on HOP-18 NSCLC was greater than 100 µM throughout.
For `CCCCCCCCCCCCCCCC(=O)NC1CCc2cc(O)c(O)c(O)c2-c2ccc(SC)c(=O)cc21` (stereo not drawn), the TGI in the test on DLD-1 colon turned out to be 22.4 µM; in the test with DMS 273 small cell lung, 16.4 µM; in the test with SNB-78 CNS it was 28.2 µM; with RXF-631 renal, 28.1 µM; in the test with LXFL 529 NSCLC, 8.04 µM.
The matching figures for `COC(=O)c1c/c(=N\NC(=O)CC(=O)Nc2ccccc2Cl)c2ccccc2o1`: greater than 100 µM, greater than 100 µM, greater than 100 µM, greater than 100 µM and greater than 100 µM.
As to `CC[C@@]1(O)C(=O)NCc2c1cc1n(c2=O)Cc2cc3cc4c(cc3nc2-1)OCO4`, in the test on MDA-N, the GI50 was 3.23 µM and the TGI is greater than 100 µM.
`Cc1cccc(C(C)(C)C)c1NC(=O)CC1C(=O)Nc2ccccc2S1=O` (stereo not drawn): the TGI in the test with DLD-1 colon, with DMS 273 small cell lung, with SNB-78 CNS, in the test with RXF-631 renal and with LXFL 529 NSCLC was greater than 100 µM each time.
Regarding `O=C(CC(=O)Nc1ccc(Cl)cc1)NNCC(=O)Nc1nc(-c2ccccc2)cs1`, the TGI with DLD-1 colon, in the test on DMS 273 small cell lung, in the test with SNB-78 CNS, in the test with LXFL 529 NSCLC and in the test with HOP-18 NSCLC was greater than 100 µM each time.
